Values quoted from earlier work, collected in patent US9585967B2, “Nicotine-containing product” (priority 2008, dated 2017).

Tests used:
[1] = extensive first-pass metabolism
[2] = in vivo

In the case of `CN1CCC[C@H]1c1cccnc1` [Nicotine, (S)-3-(1-Methyl-2-pyrrolidinyl)pyridine], the Oral bioavailability [1] is given as “about 30%” and the “half life in the body” value [2] is given as “around two”.
